From US8282688B2, “Laccase mediators and methods of use” (Danisco US Inc., priority 2006, dated 2012)
“And” between values parts separate entries of the source, which are not always exact repeats. Identical values can stand only once.

Tests used:
Type in all cases: biochemical
[1] = tested on: C. unicolor laccase; assay: Bleaching of denim swatches with C. unicolor laccase (Example 4); design: key to ΔL Denim swatch Frontside / Δb Denim swatch Frontside / ΔL Denim swatch Backside / Δb Denim swatch Backside / Δa Denim swatch Backside / Δa Denim swatch Frontside: difference between initial and final CIE L*a*b* values; key to ΔE (total color difference) Denim swatch Backside / ΔE (total color difference) Denim swatch Frontside: ΔE = (ΔL²+Δa²+Δb²)^1/2 from CIE L*a*b* before/after bleaching
Method: Denim legs (made out of sulfur bottom/indigo dyed denim fabric from Cone Mill, style number 1662P) were pretreated with IndiAge® 2XL at a dose of 1 gram per liter in a 50 lb lab scale tumbling washer. The liquor ratio was 6 to 1 (5 kg substrate in 30 liters of water) and the treatment was performed at 55° C. at pH 4.5 for 1 hour. A warm rinse followed the cellulase treatment, after which the fabric was dried in a tumble dryer. A punch press was used to cut ⅝ inch denim disks from IndiAge® 2XL pretreated denim legs. Each denim disk is pre read with a Chroma Meter CR-200 by Minolta in order to determine the CIE L*a*b* values of both the front and backside of the fabric disk.
One denim disk is placed in each well of two duplicate 12 well micro-titer plates. Each well received C. unicolor laccase (20 uL of 1/20 dilution, approx. 20 ppm), mediator (200, 100, 50 or 20 uL of a 20 mM stock solution in methanol) and 50 mM potassium phosphate buffer, pH 6 for a total volume of 2 mL/well. The mediators were methyl syringate (MS), 4-cyano-2,6-dimethoxyphenol (SN) and 3,4,5-trimethoxyphenol (TMP). The plates were sealed and incubated at 50° C. for 2 hours at 150 rpm in a standard incubator. Following this period, the swatches were removed from the plates and carefully placed on a filter paper in a Buchner funnel and washed with copious amounts of water, followed by drying of the residual water under high vacuum overnight. The swatches were then re-read with the chromometer in order to determine the CIE L*a*b* values of both the front and backside of the disk following bleaching. The total color difference (ΔE) is calculated from the difference between the initial and final CIE L*a*b* values according to the formula ΔE=(ΔL^2+Δa^2+Δb^2)^1/2 The total color differences (ΔE) as a function of mediator concentration are plotted in FIGS. 5 and 6.

[2] = tested on: Thielavia sp. laccase (Ecostone LCC10); assay: Bleaching of solubilized indigo, Thielavia sp. laccase with mediators (Example 2); settings: for ΔA600 (change in absorbance at 600 nm relative to control): laccase 10 ppm, pH 5, 50° C., 2 hours, n = 2
Method: An assay for the bleaching of the solubilized indigo substrate by laccase/mediator combinations was performed in a 96-well microtitre plate as follows
(§1) A saturated solution of indigo in N-methylpyrrolidone (NMP) was prepared by stirring indigo (30 mg) in NMP (10 ml) at room temperature for 5 hours. The NMP solution was diluted 10-fold into an aqueous buffer solution resulting in a blue solution. For example, dilution into 50 mM sodium acetate buffer at pH 5, or 50 mM sodium phosphate buffer at pH 7. Solutions were shaken well immediately before use.
(§2) The assay for the bleaching of the solubilized indigo substrate was performed in a 96-well microtitre plate whereby each well received the soluble indigo solution in 50 mM sodium acetate buffer at pH 5 (180 uL), laccase (10 ppm enzyme) and mediator solution (from a 20 mM stock solution in methanol). The total volume of each well was adjusted to 200 uL with deionzed water. A control containing laccase only was run in duplicate. The plate was sealed and incubated at 50° C. for 2 hours at 800 rpm on a heated agitator (Thermomixer, Eppendorf). Following this period, the plates were unsealed and a solution of ascorbic acid (20 uL of a 10% aqueous solution) added to each well in order to reduce the oxidized forms of the mediators. The extent of indigo bleaching was then assessed by determining the absorbance for each well at 600 nm using a microtitre plate reader. The lower the absorbance reading, the greater the extent of indigo bleaching.

[3] = tested on: Myceliophtora laccase (Denilite II); assay: Soluble indigo bleaching at two pH values, Myceliophtora laccase (Example 3)
Method: as §1, §2
(§3) Laccases derived from Myceliophtora (Denilite® II, Novozymes, Bagsvaerd, Denmark), Thielavia (Ecostone LCC10, AB enzymes, Darmstadt, Germany) and Cerrena sp. were assessed for their ability to bleach solubilized indigo in conjunction with low molecular weight mediators at two pH values.
(§4) Bleaching of solubilized indigo in 96-well microtitre plates was performed as described in Example 1, using 3 different laccases at pH values of 5 and 7.

[4] = tested on: Thielavia laccase (Ecostone LCC10); assay: Soluble indigo bleaching at two pH values, Thielavia laccase (Example 3)
Method: as §1, §2, §3, §4

[5] = tested on: Cerrena sp. laccase; assay: Soluble indigo bleaching at two pH values, Cerrena sp. laccase (Example 3)
Method: as §1, §2, §3, §4

[6] = mediator 200 uM, laccase 20 ppm, pH 6, 50° C., 2 hours
[7] = mediator 500 uM, laccase 20 ppm, pH 6, 50° C., 2 hours
[8] = mediator 1000 uM, laccase 20 ppm, pH 6, 50° C., 2 hours
[9] = mediator 50 mM Concentration (head)
[10] = mediator 500 mM Concentration (head)
[11] = lower mediator concentration of 50 uM

ΔA600 (change in absorbance at 600 nm relative to control) [2, 9]	ΔA600 (change in absorbance at 600 nm relative to control) [2, 10]	ΔA600 Myceliophtora ([3]; pH 5, mediator 250 uM)	ΔA600 Myceliophtora ([3]; pH 7, mediator 250 uM)	ΔA600 Thielavia ([4]; pH 5, mediator 250 uM)	ΔA600 Thielavia ([4]; pH 7, mediator 250 uM)	ΔA600 Cerrena ([5]; pH 5, mediator 250 uM)	ΔA600 Cerrena ([5]; pH 7, mediator 250 uM)	Compound	other results
–	–	–	–	–	–	–	–	COc1cc(O)cc(OC)c1OC [TMP, 3,4,5-trimethoxyphenol, reference compound]	effectiveness as mediator for denim swatch bleaching ([1]; C. unicolor laccase 20 ppm, 200-2000 uM mediator): not an effective mediator; ΔE (total color difference) Denim swatch Backside [1, 6]: 0.35 and 0.57; ΔE (total color difference) Denim swatch Frontside [1, 6]: 0.96 and 0.77; Δa Denim swatch Frontside [1, 6]: 0.29 and 0.33; ΔE (total color difference) Denim swatch Backside [1, 7]: 0.51 and 0.30; ΔE (total color difference) Denim swatch Frontside [1, 7]: 0.64 and 0.63; ΔL Denim swatch Frontside [1, 7]: −0.61; ΔE (total color difference) Denim swatch Backside [1, 8]: 0.45 and 0.51; ΔE (total color difference) Denim swatch Frontside [1, 8]: 0.51 and 0.46; Δa Denim swatch Backside [1, 8]: 0.22 and 0.12; ΔE (total color difference) Denim swatch Backside ([1]; mediator 2000 uM, laccase 20 ppm, pH 6, 50° C., 2 hours): 0.34
0.132	0.044	–	–	–	–	–	–	O=C(O)CCCN1c2ccccc2Sc2ccccc21 [PTP, 10-(carboxypropyl)-phenothiazine]	–
0.005	0.024	–	–	–	–	–	–	COc1cc(C(=O)O)cc(OC)c1O [Syringic acid, syringic acid]	effectiveness as mediator for indigo bleaching [2, 11]: no more effectively than the control condition
–	–	0.117	0.078	0.100	0.087	0.028	0.077	COC(=O)c1cc(OC)c(OC(C)=O)c(OC)c1 [AMS, methyl 4-acetyl syringate]	–
0.103	0.181	–	–	–	–	–	–	CNC(=O)c1cc(OC)c(O)c(OC)c1 [MSA, 4-(N-methylcarboxamido)-2,6-dimethoxyphenol]	–
–	–	0.157	0.204	0.068	0.112	0.240	0.257	COc1cc(C=CC(=O)O)cc(OC)c1O (stereo in doubt) [Sinapinic acid, sinapinic acid]	–

Compound	ΔA600 (change in absorbance at 600 nm relative to control) [2, 9]	ΔA600 (change in absorbance at 600 nm relative to control) [2, 10]	ΔA600 Myceliophtora ([3]; pH 5, mediator 250 uM)	ΔA600 Myceliophtora ([3]; pH 7, mediator 250 uM)	ΔA600 Thielavia ([4]; pH 5, mediator 250 uM)	ΔA600 Thielavia ([4]; pH 7, mediator 250 uM)	ΔA600 Cerrena ([5]; pH 5, mediator 250 uM)	ΔA600 Cerrena ([5]; pH 7, mediator 250 uM)	other results
COc1cc(C=O)cc(OC)c1O [Syringaldehyde, syringaldehyde]	0.092	0.132	–	–	–	–	–	–	–
CCn1c(=NN=c2sc3cc(S(=O)(=O)O)ccc3n2CC)sc2cc(S(=O)(=O)O)ccc21 [ABTS]	0.174	0.235	0.267	0.155	0.234	0.145	0.329	0.215	effectiveness as mediator for indigo bleaching [2, 11]: most effective mediator; effectiveness as mediator for indigo bleaching ([2]; mediator concentration of 500 uM): most effective mediator
